# Read-outs that look alike come from different tables or passages of the source. Numbered stars: 1 amine (or outer) side, 2 acyl side, 3 side chain; on linkers, the order of the positions; unused ones are H or OH. Bridge positions count the residues as written; N and C are the ends. Square brackets hold non-standard residues; d marks the D form. Peptide text beside a SMILES is read from it. Ala(2-furyl) = N[C@@H](Cc1ccco1)C(=O)O; TBMB = c1c(C[*:1])cc(C[*:3])cc1C[*:2]; X1 = O=C([C@H](Cn1cncn1)N[*:1])[*:2]; His(π-Me) = Cn1cncc1C[C@H](N)C(=O)O; Agb = N=C(N)NCC[C@H](N)C(=O)O; Phg = N[C@H](C(=O)O)c1ccccc1; Dap = NC[C@H](N)C(=O)O; Sar = CNCC(=O)O
# Target: T1, human plasma Kallikrein (Homo sapiens, UniProt P03952)
# T1 construct: purchased Stratech, UK
# Assay: Functional enzyme inhibition assay with fluorogenic substrate Z-PheArg-AMC, human plasma Kallikrein
# Assay type: biochemical
# Conditions: for F (Kivar/KiWT): ratio of Ki to wild type
# Method: Functional enzyme assays were conducted in 10 mM Tris HCl, 150 mM NaCl, 10 mM MgCl2, 1 mM CaCl2) and 1 mg/mL BSA (all Sigma UK) pH7.4 at 25° C. in solid black 96 well plates. Briefly 26.5 pM human plasma Kallikrein (purchased from Stratech, UK) or 500 pM rat plasma Kallikrein (expressed and purified in house) were incubated in the absence or presence of increasing concentrations of test peptide for 15 minutes before addition of the fluorogenic substrate Z-PheArg-AMC (Enzo Lifesciences UK) to a final assay concentration of 100 μM in 4% DMSO. Release of AMC was measured using a Pherastar FS (BMG Labtech), excitation 360 nm, emission 460 nm. The rate of the linear phase of the reaction, typically 5 to 45 minutes, was calculated in MARS data analysis software (BMG labtech). The rate was then used to calculate the IC50 and Ki in Prism (GraphPad). A four parameter inhibition non-linear regression equation was used to calculate the IC50.
# Peptides were dissolved as the TFA-salts in their powder form, and stock solutions were usually prepared in water. All solutions were centrifuged and filtered ([…] syringe filters) prior absorption measurement at 280 nm. […] For peptides containing non-natural amino acids with suspected chromophoric properties (i.e. NorHar, 4PhenylPro, 3Pal, 4Pal, Tic, 4GuanPhe, 4,4-BPAI, 3,3-DPA, 1NAI, 2NAI, 4BenzylPro, Ind) concentrations were determined by weighing the powder and dissolving the peptide in a defined quantity of water.
# [1] = Table 24b, residue 7 modifications, read-out: Ki
# [2] = Table 3c, D-Alanine scan in Loop2, read-out: Ki
# [3] = Table 24c, residue 8 modifications, read-out: Ki
# T1 sequence (P03952 20-638): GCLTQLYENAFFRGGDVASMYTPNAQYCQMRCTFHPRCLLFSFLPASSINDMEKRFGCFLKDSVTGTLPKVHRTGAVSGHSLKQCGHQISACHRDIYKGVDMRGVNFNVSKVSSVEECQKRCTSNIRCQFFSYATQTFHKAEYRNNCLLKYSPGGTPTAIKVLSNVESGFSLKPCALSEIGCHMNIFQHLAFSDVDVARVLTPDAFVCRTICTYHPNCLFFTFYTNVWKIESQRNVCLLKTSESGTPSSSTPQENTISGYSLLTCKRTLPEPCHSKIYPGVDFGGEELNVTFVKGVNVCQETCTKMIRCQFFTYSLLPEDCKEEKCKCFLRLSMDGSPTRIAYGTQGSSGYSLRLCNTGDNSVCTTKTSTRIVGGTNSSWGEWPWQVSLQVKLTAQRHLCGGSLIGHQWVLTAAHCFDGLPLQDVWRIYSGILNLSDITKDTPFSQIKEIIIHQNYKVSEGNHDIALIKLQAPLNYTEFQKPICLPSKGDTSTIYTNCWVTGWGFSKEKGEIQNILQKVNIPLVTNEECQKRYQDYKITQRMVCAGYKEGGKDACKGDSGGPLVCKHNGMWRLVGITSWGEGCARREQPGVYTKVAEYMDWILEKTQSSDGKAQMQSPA
compound,measurement,setting,value
CC(=O)N[C@H]1CSCc2cc3cc(c2)CSC[C@H](NC(=O)[C@H](CCCNC(=N)N)NC(=O)[C@H](Cc2ccc(O)cc2)NC(=O)[C@@H]2CCCN2C(=O)[C@H](Cc2ccccc2)NC(=O)[C@H](CO)NC1=O)C(=O)N[C@@H](CC(C)C)C(=O)N[C@@H](CN)C(=O)N[C@@H](CCC(N)=O)C(=O)N[C@@H](CC(=O)O)C(=O)N[C@@H](CC(C)C)C(=O)N[C@H](C(N)=O)CSC3 [Ac-(06-34-18) Phe2 Tyr4 Dap7] (Ac-CSFPYRCL[Dap]QDLC-NH2; linker 1-7-13 via TBMB),Ki,[1],246 nM
same,F (Kivar/KiWT),Table 24b,586
CC(=O)N[C@H]1CSCc2cc3cc(c2)CSC[C@H](NC(=O)[C@H](CCCNC(=N)N)NC(=O)[C@H](Cc2ccc(O)cc2)NC(=O)[C@@H]2CCCN2C(=O)[C@H](Cc2ccccc2)NC(=O)[C@H](CO)NC1=O)C(=O)N[C@@H](CC(C)C)C(=O)N[C@@H](Cc1ccco1)C(=O)N[C@@H](CCC(N)=O)C(=O)N[C@@H](CC(=O)O)C(=O)N[C@@H](CC(C)C)C(=O)N[C@H](C(N)=O)CSC3 [Ac-(06-34-18) Phe2 Tyr4 4FuAla7] (Ac-CSFPYRCL[Ala(2-furyl)]QDLC-NH2; linker 1-7-13 via TBMB),F (Kivar/KiWT),Table 24b,39
CC(=O)N[C@H]1CSCc2cc3cc(c2)CSC[C@H](NC(=O)[C@H](CCCNC(=N)N)NC(=O)[C@H](Cc2ccc(O)cc2)NC(=O)[C@@H]2CCCN2C(=O)[C@H](Cc2ccccc2)NC(=O)[C@H](CO)NC1=O)C(=O)N[C@H](C)C(=O)N[C@@H](Cc1c[nH]cn1)C(=O)N[C@@H](CCC(N)=O)C(=O)N[C@@H](CC(=O)O)C(=O)N[C@@H](CC(C)C)C(=O)N[C@H](C(N)=O)CSC3 [Ac-(06-34-18) Phe2 Tyr4 D-Ala6] (Ac-CSFPYRC[dA]HQDLC-NH2; linker 1-7-13 via TBMB),Ki,[2],9450 nM
same,F (Kivar/KiWT),Table 3c,22507
CC(=O)N[C@H]1CSCc2cc3cc(c2)CSC[C@H](NC(=O)[C@H](CCCNC(=N)N)NC(=O)[C@H](Cc2ccc(O)cc2)NC(=O)[C@@H]2CCCN2C(=O)[C@H](Cc2ccccc2)NC(=O)[C@H](CO)NC1=O)C(=O)N[C@@H](CC(C)C)C(=O)N[C@@H](Cc1c[nH]cn1)C(=O)N[C@@H]([C@@H](C)O)C(=O)N[C@@H](CC(=O)O)C(=O)N[C@@H](CC(C)C)C(=O)N[C@H](C(N)=O)CSC3 [Ac-(06-34-18) Phe2 Tyr4 Thr8] (Ac-CSFPYRCLHTDLC-NH2; linker 1-7-13 via TBMB),Ki,[3],4.23 nM
same,F (Kivar/KiWT),Table 24c,10
CC(=O)N[C@H]1CSCc2cc3cc(c2)CSC[C@H](NC(=O)[C@H](CCCNC(=N)N)NC(=O)[C@H](C)NC(=O)[C@@H]2CCCN2C(=O)[C@H](Cc2c[nH]c4ccccc24)NC(=O)[C@H](CO)NC1=O)C(=O)N[C@@H](CC(C)C)C(=O)N[C@@H](Cc1c[nH]cn1)C(=O)N[C@@H](CCC(N)=O)C(=O)N[C@H](C)C(=O)N[C@@H](CC(C)C)C(=O)N[C@H](C(N)=O)CSC3 [Ac-(06-34-18) D-Ala9] (Ac-CSWPARCLHQ[dA]LC-NH2; linker 1-7-13 via TBMB),Ki,[2],0.87 nM
same,F (Kivar/KiWT),Table 3c,2
CC(=O)N[C@H]1CSCc2cc3cc(c2)CSC[C@H](NC(=O)[C@H](CCCNC(=N)N)NC(=O)[C@H](Cc2ccc(O)cc2)NC(=O)[C@@H]2CCCN2C(=O)[C@H](Cc2ccccc2)NC(=O)[C@H](CO)NC1=O)C(=O)N[C@@H](CC(C)C)C(=O)N[C@@H](CCNC(=N)N)C(=O)N[C@@H](CCC(N)=O)C(=O)N[C@@H](CC(=O)O)C(=O)N[C@@H](CC(C)C)C(=O)N[C@H](C(N)=O)CSC3 [Ac-(06-34-18) Phe2 Tyr4 Agb7] (Ac-CSFPYRCL[Agb]QDLC-NH2; linker 1-7-13 via TBMB),Ki,[1],2250 nM
same,F (Kivar/KiWT),Table 24b,5365
CC(=O)N[C@H]1CSCc2cc3cc(c2)CSC[C@H](NC(=O)[C@H](CCCNC(=N)N)NC(=O)[C@H](Cc2ccc(O)cc2)NC(=O)[C@@H]2CCCN2C(=O)[C@H](Cc2ccccc2)NC(=O)[C@H](CO)NC1=O)C(=O)N[C@@H](CC(C)C)C(=O)N[C@@H](Cc1ccccc1)C(=O)N[C@@H](CCC(N)=O)C(=O)N[C@@H](CC(=O)O)C(=O)N[C@@H](CC(C)C)C(=O)N[C@H](C(N)=O)CSC3 [Ac-(06-34-18) Phe2 Tyr4 Phe7] (Ac-CSFPYRCLFQDLC-NH2; linker 1-7-13 via TBMB),Ki,[1],43 nM
same,F (Kivar/KiWT),Table 24b,102
"CC(C)C[C@@H]1NC(=O)[C@H](CC(=O)O)NC(=O)[C@H](CCC(N)=O)NC(=O)[C@H](Cc2c[nH]cn2)NC(=O)[C@H](C)NC(=O)[C@@H]2CSCc3cc(cc(c3)CSC[C@@H](C(=O)N[C@@H](C)C(N)=O)NC1=O)CSC[C@H](NC(=O)[C@H](C)N)C(=O)N[C@@H](C)C(=O)N[C@@H](Cc1c[nH]c3ccccc13)C(=O)N1CCC[C@H]1C(=O)N[C@@H](C)C(=O)N[C@@H](CCCNC(=N)N)C(=O)N2 [06-34-03-Ala1,6] (H-ACAWPARCAHQDLCA-NH2; linker 2-8-14 via TBMB)",potency / binding to kallikrein (in words),,retained full potency compared to the parent
"CC(=O)N[C@H]1CSCc2cc3cc(c2)CSC[C@H](NC(=O)[C@H](CCCNC(=N)N)NC(=O)[C@H](Cc2ccc(O)cc2)NC(=O)[C@@H]2CCCN2C(=O)[C@H](Cc2ccccc2)NC(=O)[C@H](CO)NC1=O)C(=O)N[C@@H](CC(C)C)C(=O)N[C@@H](Cn1cncn1)C(=O)N[C@@H](CCC(N)=O)C(=O)N[C@@H](CC(=O)O)C(=O)N[C@@H](CC(C)C)C(=O)N[C@H](C(N)=O)CSC3 [Ac-(06-34-18) Phe2 Tyr4 1,2,4-TriAz7] (Ac-CSFPYRCL[X1]QDLC-NH2; linker 1-7-13 via TBMB)",Ki,[1],455 nM
same,F (Kivar/KiWT),Table 24b,1084
CC(=O)N[C@H]1CSCc2cc3cc(c2)CSC[C@H](NC(=O)[C@H](CCCNC(=N)N)NC(=O)[C@H](Cc2ccc(O)cc2)NC(=O)[C@@H]2CCCN2C(=O)[C@H](Cc2ccccc2)NC(=O)[C@H](CO)NC1=O)C(=O)N[C@@H](CC(C)C)C(=O)N[C@@H](Cc1c[nH]cn1)C(=O)N[C@@H](CN)C(=O)N[C@@H](CC(=O)O)C(=O)N[C@@H](CC(C)C)C(=O)N[C@H](C(N)=O)CSC3 [Ac-(06-34-18) Phe2 Tyr4 Dap8] (Ac-CSFPYRCLH[Dap]DLC-NH2; linker 1-7-13 via TBMB),Ki,[3],5.49 nM
same,F (Kivar/KiWT),Table 24c,13
"CC(C)C[C@@H]1NC(=O)[C@H](CC(=O)O)NC(=O)[C@H](CCC(N)=O)NC(=O)[C@H](Cc2c[nH]cn2)NC(=O)CN(C)C(=O)[C@@H]2CSCc3cc(cc(c3)CSC[C@H](NC(=O)[C@H](C)N)C(=O)N(C)CC(=O)N[C@@H](Cc3c[nH]c4ccccc34)C(=O)N3CCC[C@H]3C(=O)N[C@@H](C)C(=O)N[C@@H](CCCNC(=N)N)C(=O)N2)CSC[C@@H](C(=O)N[C@@H](C)C(N)=O)NC1=O [06-34-03-N-MeGly1,6, ACN-MeGWPARC(N-MeG)HQDLCA] (H-AC[Sar]WPARC[Sar]HQDLCA-NH2; linker 2-8-14 via TBMB; N-terminus and C-terminus assumed)",potency / binding to kallikrein (in words),,reduction in potency
CC(=O)N[C@H]1CSCc2cc3cc(c2)CSC[C@H](NC(=O)[C@H](CCCNC(=N)N)NC(=O)[C@H](Cc2ccc(O)cc2)NC(=O)[C@@H]2CCCN2C(=O)[C@H](Cc2ccccc2)NC(=O)[C@H](CO)NC1=O)C(=O)N[C@@H](CC(C)C)C(=O)N[C@@H](Cc1c[nH]cn1)C(=O)N[C@H](C)C(=O)N[C@@H](CC(=O)O)C(=O)N[C@@H](CC(C)C)C(=O)N[C@H](C(N)=O)CSC3 [Ac-(06-34-18) Phe2 Tyr4 D-Ala8] (Ac-CSFPYRCLH[dA]DLC-NH2; linker 1-7-13 via TBMB),Ki,[2],243 nM
same,F (Kivar/KiWT),Table 3c,578
CC(=O)N[C@H]1CSCc2cc3cc(c2)CSC[C@H](NC(=O)[C@H](CCCNC(=N)N)NC(=O)[C@H](C)NC(=O)[C@@H]2CCCN2C(=O)[C@H](Cc2c[nH]c4ccccc24)NC(=O)[C@H](CO)NC1=O)C(=O)N[C@@H](c1ccccc1)C(=O)N[C@@H](Cc1c[nH]cn1)C(=O)N[C@@H](CCC(N)=O)C(=O)N[C@@H](CC(=O)O)C(=O)N[C@@H](CC(C)C)C(=O)N[C@H](C(N)=O)CSC3 [Ac-(06-34-18) Phg6] (Ac-CSWPARC[Phg]HQDLC-NH2; linker 1-7-13 via TBMB),Ki,"Table 24a, residue 6 modification in the context of Ac-(06-34-18), read-out: Ki (nM) Ac-(06-34-18)",0.18 nM
CC(=O)N[C@H]1CSCc2cc3cc(c2)CSC[C@H](NC(=O)[C@H](CCCNC(=N)N)NC(=O)[C@H](Cc2ccc(O)cc2)NC(=O)[C@@H]2CCCN2C(=O)[C@H](Cc2ccccc2)NC(=O)[C@H](CO)NC1=O)C(=O)N[C@@H](CC(C)C)C(=O)N[C@@H](Cc1cncn1C)C(=O)N[C@@H](CCC(N)=O)C(=O)N[C@@H](CC(=O)O)C(=O)N[C@@H](CC(C)C)C(=O)N[C@H](C(N)=O)CSC3 [Ac-(06-34-18) Phe2 Tyr4 His3Me7] (Ac-CSFPYRCL[His(π-Me)]QDLC-NH2; linker 1-7-13 via TBMB),Ki,[1],292 nM
same,F (Kivar/KiWT),Table 24b,696
CC(=O)N[C@H]1CSCc2cc3cc(c2)CSC[C@H](NC(=O)[C@H](CCCNC(=N)N)NC(=O)[C@H](Cc2ccc(O)cc2)NC(=O)[C@@H]2CCCN2C(=O)[C@H](Cc2ccccc2)NC(=O)[C@H](CO)NC1=O)C(=O)N[C@@H](CC(C)C)C(=O)N[C@@H](Cc1c[nH]cn1)C(=O)N[C@@H](CCC(=O)O)C(=O)N[C@@H](CC(=O)O)C(=O)N[C@@H](CC(C)C)C(=O)N[C@H](C(N)=O)CSC3 [Ac-(06-34-18) Phe2 Tyr4 Glu8] (Ac-CSFPYRCLHEDLC-NH2; linker 1-7-13 via TBMB),Ki,[3],2.53 nM
same,F (Kivar/KiWT),Table 24c,6
